Patent US4334019A, “Process for producing de(mycinosyloxy)tylosin” (Eli Lilly and Company, priority 1981, dated 1982)
≈ marks a conversion by molar mass, not a printed value.

How the values were obtained:
[1] = tested on: Streptomyces fradiae E2724.1; test: Antibiotic sensitivity (sensitivity discs), E2724.1; format: cell-based; conditions: discs: chloramphenicol 30 μg, erythromycin 15 μg, cephaloridine 30 μg, lincomycin 2 μg, polymyxin B 300 units, streptomycin 10 μg, tetracycline 30 μg, vancomycin 30 μg; further: key: -: resistance (no zones of inhibition); +: sensitivity (zones of inhibition); trace of sensitivity
Description: (§1) ^a Determined by using sensitivity discs padded onto seededagar

[2] = tested on: Streptomyces fradiae NRRL 11271; test: Antibiotic sensitivity (sensitivity discs), NRRL 11271; format: cell-based; conditions: discs: chloramphenicol 30 μg, erythromycin 15 μg, cephaloridine 30 μg, lincomycin 2 μg, polymyxin B 300 units, streptomycin 10 μg, tetracycline 30 μg, vancomycin 30 μg; further: key: -: resistance (no zones of inhibition); +: sensitivity (zones of inhibition); trace of sensitivity
Description: as §1

[3] = tested on: Streptococcus pneumoniae Park I; test: MIC, standard agar-dilution assay, Streptococcus pneumoniae Park I; format: cell-based
Pasteurella multocida = test: MIC, standard agar-dilution assay, Pasteurella multocida; format: cell-based
[4] = tested on: gram-positive microorganisms and Mycoplasma species; test: Growth inhibition of pathogenic organisms (general statement); format: cell-based
Mycoplasma hyorhinis = test: MIC, standard agar-dilution assay, Mycoplasma hyorhinis; format: cell-based
[5] = Electrometric titration of DMOT (pKa); format: physicochemical; conditions: 66% aqueous dimethylformamide
Description: Electrometric titration of DMOT in 66% aqueous dimethylformamide indicates the presence of a titratable group with a pKa value of about 7.3.

[6] = tested on: Streptococcus pyogenes C203; test: In vivo activity against experimental bacterial infection in mice (ED50); conditions: C203, sc, subcutaneous, two doses, bacterial challenge 268 X LD50, effective dose to protect 50% of the test animals
Experimental: The DMOT compounds have shown in vivo antimicrobial activity against experimental bacterial infections. When two doses of test compound were administered to mice in experimental infections, the activity observed was measured as an ED50 value [effective dose in mg/kg to protect 50% of the test animals: see Warren Wick, et al., J. Bacteriol. 81, 233-235 (1961)].
^a Subcutaneous; mg/kg × 2

Mycoplasma gallisepticum = test: MIC, standard agar-dilution assay, Mycoplasma gallisepticum; format: cell-based; conditions: Mycoplasmoides gallisepticum
[7] = tested on: Streptococcus pyogenes C203; test: MIC, standard agar-dilution assay, Streptococcus pyogenes C203; format: cell-based
[8] = tested on: Staphylococcus aureus 3055; test: MIC, standard agar-dilution assay, Staphylococcus aureus 3055; format: cell-based
[9] = tested on: Streptococcus sp. (Group D) 282; test: MIC, standard agar-dilution assay, Streptococcus sp. (Group D) 282; format: cell-based
Pasteurella hemolytica = test: MIC, standard agar-dilution assay, Pasteurella hemolytica; format: cell-based
Mycoplasma hyopneumoniae = test: MIC, standard agar-dilution assay, Mycoplasma hyopneumoniae; format: cell-based; conditions: Mesomycoplasma hyopneumoniae
Solubility = format: physicochemical; conditions: free base

O=C(Cc1cccs1)N[C@@H]1C(=O)N2C(C(=O)[O-])=C(C[n+]3ccccc3)CS[C@H]12 [Cephaloridine]
Antibiotic sensitivity, E2724.1 [1]: +
Antibiotic sensitivity, NRRL 11271 [2]: +

O=C(N[C@H](CO)[C@H](O)c1ccc([N+](=O)[O-])cc1)C(Cl)Cl [Chloramphenicol]
Antibiotic sensitivity, E2724.1 [1]: +
Antibiotic sensitivity, NRRL 11271 [2]: +

CCC1OC(=O)CC(O)C(C)C(OC2OC(C)C(OC3CC(C)(O)C(O)C(C)O3)C(N(C)C)C2O)C(CC=O)CC(C)C(=O)C=CC(C)=CC1C (stereo not shown) [DMOT, 23-de(mycinosyloxy)tylosin]
MIC [3]: 0.13 µg/mL (≈ 0.179 µM)
MIC (Pasteurella multocida): 6.25 µg/mL (≈ 8.61 µM)
antibacterial activity (in words) [4]: especially active against gram-positive microorganisms and Mycoplasma species
MIC (Mycoplasma hyorhinis): 0.78 µg/mL (≈ 1.07 µM)
pKa [5]: ~7.3
ED50 [6]: 6.3 mg/kg
MIC (Mycoplasma gallisepticum): 0.097 µg/mL (≈ 0.134 µM)
MIC [7]: 0.25 µg/mL (≈ 0.344 µM)
MIC [8]: 1 µg/mL (≈ 1.38 µM)
MIC [9]: 0.5 µg/mL (≈ 0.689 µM)
MIC (Pasteurella hemolytica): 25 µg/mL (≈ 34.4 µM)
MIC (Mycoplasma hyopneumoniae): 0.39 µg/mL (≈ 0.537 µM)
solubility in polar organic solvents (Solubility; most polar organic solvents, such as acetone, methanol, ethanol, dimethylformamide, chloroform and dimethyl sulfoxide): soluble
solubility in water (Solubility; water): sparingly soluble

CC[C@H]1OC(=O)[C@H](C)[C@@H](O[C@H]2C[C@@](C)(OC)[C@@H](O)[C@H](C)O2)[C@H](C)[C@@H](O[C@@H]2O[C@H](C)C[C@H](N(C)C)[C@H]2O)[C@](C)(O)C[C@@H](C)C(=O)[C@H](C)[C@@H](O)[C@]1(C)O [Erythromycin]
Antibiotic sensitivity, NRRL 11271 [2]: +

CCC[C@@H]1C[C@@H](C(=O)N[C@@H]([C@H]2O[C@H](SC)[C@H](O)[C@@H](O)[C@H]2O)[C@@H](C)O)N(C)C1 [Lincomycin]
Antibiotic sensitivity, E2724.1 [1]: -
Antibiotic sensitivity, NRRL 11271 [2]: -

[H]/N=C(/N)N[C@H]1[C@H](O)[C@@H](O)[C@H](O[C@@H]2O[C@@H](C)[C@](O)(C=O)[C@H]2O[C@@H]2O[C@@H](CO)[C@H](O)[C@@H](O)[C@@H]2NC)[C@@H](N/C(N)=N\[H])[C@@H]1O [Streptomycin]
Antibiotic sensitivity, E2724.1 [1]: +
Antibiotic sensitivity, NRRL 11271 [2]: +

CN(C)[C@@H]1C(O)=C(C(N)=O)C(=O)[C@@]2(O)C(O)=C3C(=O)c4c(O)cccc4[C@@](C)(O)[C@H]3C[C@@H]12 [Tetracycline]
Antibiotic sensitivity, E2724.1 [1]: +
Antibiotic sensitivity, NRRL 11271 [2]: +

CN[C@H](CC(C)C)C(=O)N[C@H]1C(=O)N[C@@H](CC(N)=O)C(=O)N[C@H]2C(=O)N[C@H]3C(=O)N[C@H](C(=O)N[C@H](C(=O)O)c4cc(O)cc(O)c4-c4cc3ccc4O)[C@H](O)c3ccc(c(Cl)c3)Oc3cc2cc(c3O[C@@H]2O[C@H](CO)[C@@H](O)[C@H](O)[C@H]2O[C@H]2C[C@](C)(N)[C@H](O)[C@H](C)O2)Oc2ccc(cc2Cl)[C@H]1O [Vancomycin]
Antibiotic sensitivity, E2724.1 [1]: +
Antibiotic sensitivity, NRRL 11271 [2]: +

CCC1OC(=O)CC(O)C(C)C(OC2OC(C)C(OC3CC(C)(O)C(O)C(C)O3)C(N(C)C)C2O)C(CCO)CC(C)C(=O)C=CC(C)=CC1C (stereo not shown) [dihydro-DMOT, 20-dihydro-23-de(mycinosyloxy)tylosin]
antibacterial activity (in words) [4]: especially active against gram-positive microorganisms and Mycoplasma species
